Measurements reported in patent publication US12600709B2, “Nonpeptide somatostatin type 5 receptor agonists and uses thereof” (Crinetics Pharmaceuticals, Inc., priority 2019, dated 2026).

Molecular target: T1, human somatostatin receptor subtype 5 (Homo sapiens, UniProt P35346)
T1 construct: expressed in transfected cells
Experiment: cAMP assay for SST5R (inhibition of cAMP in CHO-K1 cells)
Type: cell-based
Conditions: Table A; inhibition of cAMP via human SST5 receptor; read-out: SST5 potency
Text: General overview: All five SSTR subtypes are Gi coupled G-protein coupled receptors (GPCRs) that lead to decreases in intracellular cyclic AMP (cAMP) when activated by an agonist. Therefore, measurement of intracellular cAMP levels can be used to assess whether compounds of the invention are agonists of SSTR subtypes (John Kelly, Troy Stevens, W. Joseph Thompson, and Roland Seifert, Current Protocols in Pharmacology, 2005, 2.2.1-2.2). One example of an intracellular cAMP assay is described below.
cAMP Assay Protocol for SST5R:
Four days prior to the assay, 2,000 Chinese hamster ovary cells (CHO-K1, ATCC #CCL-61) stably expressing the human somatostatin receptor subtype 5 are plated in each well of a 96-well tissue culture-treated plate in Ham's F12 growth media (ThermoFisher #10-080-CM) supplemented with 10% donor bovine serum (Gemini Bio-Products #100-506), 100 U/mL penicillin; 100 µg/mL streptomycin; 2 mM L-glutamine (Gemini Bio-Products #400-110) and 0.25 mg/mL G418 Sulfate (GoldBio #108321-42-2). The cells are cultured at 37° C., 5% CO2 and 95% humidity. On the day of the assay, the media is aspirated and the cells are treated with 50 μL of 1.6 μM NKH477 (Sigma #N3290) plus various dilutions of compounds of the invention in assay buffer [1× Hank's Balanced Salt Solution (ThermoFisher #SH3058802), 0.5 mM HEPES pH 7.4, 0.1% bovine serum albumin, 0.2 mM 3-Isobutyl-1-methylxanthine (IBMX, VWR #200002-790)]. The cells are incubated for 20 minutes at 37° C. […] The cells are treated with 50 μL of lysis buffer (HRTF cAMP kit, Cisbio) for 30 minutes and then the lysate is diluted to 250 μL with assay buffer. The lysate is transferred to 384-well plates and cAMP detection and visualization antibodies are added and incubated for 1-24 hours at room temperature. The time-resolved fluorescent signal is read with a Tecan M1000Pro multiplate reader. The intracellular cAMP concentrations are calculated by regression to a standard curve and are plotted vs. the concentration of the compounds of the invention and the EC50 of the compounds are calculated using standard methods. All data manipulations are in GraphPad Prism v6 or v7.

T1 sequence (P35346 whole entry): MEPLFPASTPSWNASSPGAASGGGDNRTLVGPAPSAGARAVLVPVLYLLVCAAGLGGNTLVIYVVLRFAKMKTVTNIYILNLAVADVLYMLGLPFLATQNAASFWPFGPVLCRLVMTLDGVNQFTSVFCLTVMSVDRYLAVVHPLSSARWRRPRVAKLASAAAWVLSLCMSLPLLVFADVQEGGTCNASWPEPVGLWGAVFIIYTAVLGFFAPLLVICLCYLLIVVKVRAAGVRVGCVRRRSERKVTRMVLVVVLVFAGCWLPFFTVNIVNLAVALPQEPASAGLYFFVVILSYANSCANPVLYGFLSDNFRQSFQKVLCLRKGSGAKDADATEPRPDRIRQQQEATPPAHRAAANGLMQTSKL

| EC50 [µM] | Compound |
| --- | --- |
| < 0.01 | C[C@]1(N)CCN(c2c(C(=O)NCC3CC(F)(F)C3)cncc2-c2cc(F)cc(F)c2)C1 [1-50, 4-[(3S)-3-amino-3-methylpyrrolidin-1-yl]-N-[(3,3-difluorocyclobutyl)methyl]-5-(3,5-difluorophenyl)pyridine-3-carboxamide] |
| < 0.01 | C[C@@H](NC(=O)c1cncc(-c2cc(F)cc(F)c2)c1N1CC[C@](C)(N)C1)C(F)(F)F [1-53, 4-[(3S)-3-amino-3-methylpyrrolidin-1-yl]-5-(3,5-difluorophenyl)-N-[(2R)-1,1,1-trifluoropropan-2-yl]pyridine-3-carboxamide] |
| < 0.01 | C[C@]1(N)CCN(c2c(C(=O)N[C@H]3C[C@H](F)C3)cncc2-c2cc(F)cc(F)c2)C1 [1-55] |
| < 0.01 | C[C@]1(N)CCN(c2c(C(=O)NC(C3CCC3)C(F)(F)F)cncc2-c2cc(F)cc(F)c2)C1 (stereo partly drawn) [1-56, 4-[(3S)-3-amino-3-methylpyrrolidin-1-yl]-N-(1-cyclobutyl-2,2,2-trifluoroethyl)-5-(3,5-difluorophenyl)pyridine-3-carboxamide] |
| < 0.01 | C[C@]1(N)CCN(c2c(C(=O)N[C@H]3C[C@@H](F)C3)cncc2-c2cc(F)cc(F)c2)C1 [1-59, 4-[(3S)-3-amino-3-methylpyrrolidin-1-yl]-5-(3,5-difluorophenyl)-N-[cis-3-fluorocyclobutyl]pyridine-3-carboxamide] |
| < 0.01 | CC(CC(F)(F)F)NC(=O)c1cncc(-c2cc(F)cc(F)c2)c1N1CC[C@](C)(N)C1 (stereo partly drawn) [1-60, 4-[(3S)-3-amino-3-methylpyrrolidin-1-yl]-5-(3,5-difluorophenyl)-N-(4,4,4-trifluorobutan-2-yl)pyridine-3-carboxamide] |
| < 0.01 | CC(F)(F)CNC(=O)c1cncc(-c2cc(F)cc(F)c2)c1N1CC[C@](C)(N)C1 [1-62, 4-[(3S)-3-amino-3-methylpyrrolidin-1-yl]-5-(3,5-difluorophenyl)-N-(2,2-difluoropropyl)pyridine-3-carboxamide] |
| 0.01 to 0.1 | CC(N)C1CN(c2c(C(=O)NC34CC(C3)C4)cncc2-c2cc(F)cc(F)c2)C1 (stereo not shown) [1-63, 4-[3-(1-aminoethyl)azetidin-1-yl]-N-{bicyclo[1.1.1]pentan-1-yl}-5-(3,5-difluorophenyl)pyridine-3-carboxamide] |
| < 0.01 | N#Cc1ncc(C(=O)NC23CC(C2)C3)c(N2CC[C@H](N)C2)c1-c1cccc(F)c1 [1-65, 4-[(3S)-3-aminopyrrolidin-1-yl]-N-{bicyclo[1.1.1]pentan-1-yl}-6-cyano-5-(3-fluorophenyl)pyridine-3-carboxamide] |
| 0.1 to 1 | C[C@]1(N)CCN(c2cc(C#N)ncc2C(=O)NC23CC(C2)C3)C1 [1-75, 4-[(3S)-3-amino-3-methylpyrrolidin-1-yl]-N-{bicyclo[1.1.1]pentan-1-yl}-6-cyanopyridine-3-carboxamide] |
| 0.1 to 1 | N#Cc1ncc(C(=O)N2CCCCC2)c(N2CC[C@H](N)C2)c1-c1cc(F)cc(F)c1 [1-80, 4-[(3S)-3-aminopyrrolidin-1-yl]-3-(3,5-difluorophenyl)-5-(piperidine-1-carbonyl)pyridine-2-carbonitrile] |
| < 0.01 | N#Cc1ncc(C(=O)NC2CCCC2)c(N2CC[C@H](N)C2)c1-c1cc(F)cc(F)c1 [1-82, 4-[(3S)-3-aminopyrrolidin-1-yl]-6-cyano-N-cyclopentyl-5-(3,5-difluorophenyl)pyridine-3-carboxamide] |
| < 0.01 | N#Cc1ncc(C(=O)NC23CC(C2)C3)c(N2CC[C@H](N)C2)c1-c1cccc(Cl)c1 [1-84, 4-[(3S)-3-aminopyrrolidin-1-yl]-N-{bicyclo[1.1.1]pentan-1-yl}-5-(3-chlorophenyl)-6-cyanopyridine-3-carboxamide] |
| < 0.01 | C[C@]1(N)CCN(c2c(C(=O)NC3CCOCC3)cnc(C#N)c2-c2cc(F)cc(F)c2)C1 [1-88, 4-[(3S)-3-amino-3-methylpyrrolidin-1-yl]-6-cyano-5-(3,5-difluorophenyl)-N-(oxan-4-yl)pyridine-3-carboxamide] |
| < 0.01 | C[C@]1(N)CCN(c2c(C(=O)NC3CCCOC3)cnc(C#N)c2-c2cc(F)cc(F)c2)C1 (stereo partly drawn) [1-89, 4-[(3S)-3-amino-3-methylpyrrolidin-1-yl]-6-cyano-5-(3,5-difluorophenyl)-N-(oxan-3-yl)pyridine-3-carboxamide] |
| < 0.01 | C[C@H](NC(=O)c1cnc(C#N)c(-c2cc(F)cc(F)c2)c1N1CC[C@H](N)C1)c1ccccn1 [1-95, 4-[(3S)-3-aminopyrrolidin-1-yl]-6-cyano-5-(3,5-difluorophenyl)-N-[(1S)-1-(pyridin-2-yl)ethyl]pyridine-3-carboxamide] |
| < 0.01 | C[C@H](NC(=O)c1cnc(C#N)c(-c2cc(F)cc(F)c2)c1N1CC[C@H](N)C1)c1ccccc1 [1-97, 4-[(3S)-3-aminopyrrolidin-1-yl]-6-cyano-5-(3,5-difluorophenyl)-N-[(1S)-1-phenylethyl]pyridine-3-carboxamide] |
| 0.01 to 0.1 | Cn1ccc(CNC(=O)c2cnc(C#N)c(-c3cc(F)cc(F)c3)c2N2CC[C@](C)(N)C2)n1 [1-105, 4-[(3S)-3-amino-3-methylpyrrolidin-1-yl]-6-cyano-5-(3,5-difluorophenyl)-N-[(1-methyl-1H-pyrazol-3-yl)methyl]pyridine-3-carboxamide] |
| 0.01 to 0.1 | Cn1ccnc1CNC(=O)c1cnc(C#N)c(-c2cc(F)cc(F)c2)c1N1CC[C@](C)(N)C1 [1-106, 4-[(3S)-3-amino-3-methylpyrrolidin-1-yl]-6-cyano-5-(3,5-difluorophenyl)-N-[(1-methyl-1H-imidazol-2-yl)methyl]pyridine-3-carboxamide] |
| 0.01 to 0.1 | Cn1cc(CNC(=O)c2cnc(C#N)c(-c3cc(F)cc(F)c3)c2N2CC[C@](C)(N)C2)cn1 [1-107, 4-[(3S)-3-amino-3-methylpyrrolidin-1-yl]-6-cyano-5-(3,5-difluorophenyl)-N-[(1-methyl-1H-pyrazol-4-yl)methyl]pyridine-3-carboxamide] |
| 0.1 to 1 | COC[C@]1(N)CCN(c2c(C(=O)N[C@@H](C)C3CC3)cnc(C#N)c2-c2cc(F)cc(F)c2)C1 [1-117, 4-[(3S)-3-amino-3-(methoxymethyl)pyrrolidin-1-yl]-6-cyano-N-[(1S)-1-cyclopropylethyl]-5-(3,5-difluorophenyl)pyridine-3-carboxamide] |
| < 0.01 | Cc1cc(-c2cncc(C(=O)N[C@@H](C)C3CC3)c2N2CC[C@](C)(N)C2)cc(C)n1 [1-131, 4-[(3S)-3-amino-3-methylpyrrolidin-1-yl]-N-[(1S)-1-cyclopropylethyl]-2′,6′-dimethyl-[3,4′-bipyridine]-5-carboxamide] |
| 0.1 to 1 | CC(NC(=O)c1cnc(C#N)c(-c2cc(F)cc(F)c2)c1N1CC[C@](C)(N)C1)c1cn(C)nn1 (stereo partly drawn) [1-133, 4-[(3S)-3-amino-3-methylpyrrolidin-1-yl]-6-cyano-5-(3,5-difluorophenyl)-N-[1-(1-methyl-1H-1,2,3-triazol-4-yl)ethyl]pyridine-3-carboxamide] |
| < 0.01 | C[C@H](NC(=O)c1cnc(C#N)c(-c2cnoc2)c1N1CC[C@](C)(N)C1)C1CC1 [1-134, 4-[(3S)-3-amino-3-methylpyrrolidin-1-yl]-6-cyano-N-[(1S)-1-cyclopropylethyl]-5-(1,2-oxazol-4-yl)pyridine-3-carboxamide] |
| < 0.01 | C[C@H](NC(=O)c1cnc(C#N)c(-c2cc(F)cc(Cl)c2)c1N1C[C@@H](N)[C@H](F)C1)C1CC1 [1-138, 4-[(3R,4R)-3-amino-4-fluoropyrrolidin-1-yl]-5-(3-chloro-5-fluorophenyl)-6-cyano-N-[(1S)-1-cyclopropylethyl]pyridine-3-carboxamide] |
| < 0.01 | COc1ncc(C(=O)N[C@@H](C)C(F)(F)F)c(N2CC[C@](C)(N)C2)c1-c1cc(F)cc(F)c1 [1-140, 4-[(3S)-3-amino-3-methylpyrrolidin-1-yl]-5-(3,5-difluorophenyl)-6-methoxy-N-[(2S)-1,1,1-trifluoropropan-2-yl]pyridine-3-carboxamide] |
| < 0.01 | COc1ncc(C(=O)N[C@@H](C)C2CC2)c(N2CC[C@](C)(N)C2)c1-c1cc(F)cc(F)c1 [1-141, 4-[(3S)-3-amino-3-methylpyrrolidin-1-yl]-N-[(1S)-1-cyclopropylethyl]-5-(3,5-difluorophenyl)-6-methoxypyridine-3-carboxamide] |
| < 0.01 | C[C@H](NC(=O)c1cncc(-c2cncc(F)c2)c1N1CC[C@](C)(N)C1)C1CC1 [1-142, 4-[(3S)-3-amino-3-methylpyrrolidin-1-yl]-N-[(1S)-1-cyclopropylethyl]-5′-fluoro-[3,3′-bipyridine]-5-carboxamide] |
